Measured values taken from patent US20090130707A1, “Methods of reducing the inhibitory effect of a redox active metal ion on the enzymatic hydrolysis of cellulosic material” (priority 2007, published 2009).

Assays:
[1] = tested on: Cellulolytic Enzyme Composition #1; experiment: mini-scale PCS hydrolysis by Cellulolytic Enzyme Composition #1; assay type: biochemical, Trichoderma reesei; details: for cellobiose level in the hydrolysis products versus absence of the compounds: PCS hydrolysis; for Effect of chelator on enzyme in the absence of FeSO4: PCS hydrolysis (FIGS. 23A-23D)
Experimental: The effect of various salts (FeSO4, FeCl2, NaCl, Na2SO4, MnSO4, MnCl2) was determined in the hydrolysis of PCS by Cellulolytic Enzyme Composition #2. The PCS hydrolysis was performed in duplicate in capped 1.7 ml EPPENDORF® tubes (“mini-scale”) containing 1 ml suspensions of 43.4 g of PCS (dry weight) per liter, 10 mM salts in 50 mM sodium acetate pH 5. Cellulolytic Enzyme Composition #2 was added at 0.25 g per liter. Reactions without the addition of the salt served as controls. The capped tubes were incubated at 50° C. in an INNOVA® 4080 incubator shaker (New Brunswick Scientific Co., Inc., Edison, N.J., USA) at 150 rpm.
(§1) Aliquots of the suspensions, sampled over time, were filtered by centrifugation using a 0.45 μm MULTISCREEN® HV membrane (Millipore, Billerica, Mass., USA) at 2000 rpm for 15 minutes using a SORVALL® RT7 centrifuge (Thermo Fisher Scientific, Waltham, Mass., USA). When not used immediately, the filtered sugary aliquots were frozen at −20° C. Sugar concentrations of the samples diluted in 0.005 M H2SO4 were measured after elution from a 4.6×250 mm AMINEX® HPX-87H column (Bio-Rad, Hercules, Calif., USA) by 0.005 M H2SO4 at a flow rate of 0.4 ml/minute at 65° C. with quantitation by integration of glucose and cellobiose using refractive index detection (CHEMSTATION®, AGILENT® 1100 HPLC, Agilent Technologies, Santa Clara, Calif., USA) calibrated with standards of glucose and cellobiose. The resultant equivalents were used to calculate the percentage of cellulose conversion for each reaction.
Example 30 was repeated with both Cellulolytic Enzyme Composition #1 and Cellulolytic Enzyme Composition #2. Soluble reducing sugars were measured by HPLC as described in Example 30. Reactions without the addition of FeSO4 served as controls.
The hydrolysis was performed in a series of duplicate “mini-scale” hydrolysis reactions according to the procedure described in Example 30.

[2] = tested on: Cellulolytic Enzyme Composition #1; experiment: mini-plate-scale AVICEL hydrolysis by Cellulolytic Enzyme Composition #1; assay type: biochemical, Trichoderma reesei; details: 10 mM, 25 g AVICEL and 0.25 g enzyme per liter, pH 5, 50° C.
Experimental: (§2) Various (biologically common) divalent metal cations with variable ionic radii were tested in 2.8 ml Deep Well Microplates (VWR International, West Chester, Pa., USA) (“mini-plate-scale”) containing 1 ml suspensions of 25 g of AVICEL® per liter in 50 mM sodium acetate pH 5 at 50° C. Cellulolytic Enzyme Composition #1 was added at 0.25 g per liter for each hydrolysis. The mini-plates were sealed at 160° C. for 2 seconds using an ABGENE® ALPS 300™ sealer (ABgene, Rochester, N.Y., USA). The sealed mini-plates were incubated at 50° C. in an INNOVA® 4080 incubator shaker at 150 rpm. Soluble reducing sugars were measured by HPLC as described in Example 30.
Iron-chelator complexes of variable size or redox property were tested for their ability to inhibit enzymatic hydrolysis of cellulose. […]

[3] = tested on: Cellulolytic Enzyme Composition #2; experiment: mini-plate-scale PCS hydrolysis by Cellulolytic Enzyme Composition #2 with H2O2 and ferric ion chelator; assay type: biochemical, Trichoderma reesei; details: for Effect on the inhibition by ferrous ion: 2.5 mM FeSO4, 10 mM H2O2 for 30 minutes, 10 mM desferrioxamine
Experimental: However, prior to the addition of Cellulolytic Enzyme Composition #2, the mixture of PCS and FeSO4 was treated with 10 mM H2O2 for 30 minutes. In some cases, 10 mM desferrioxamine was also added. Reactions without the addition of FeSO4 or H2O2 served as controls.

[4] = single-electron oxidation potential of iron-chelator complexes; cited from earlier work
[5] = tested on: Cellulolytic Enzyme Composition #2; experiment: mini-scale PCS hydrolysis by Cellulolytic Enzyme Composition #2; assay type: biochemical, Trichoderma reesei; details: 10 mM salt; 43.4 g PCS and 0.25 g enzyme per liter, 50 mM sodium acetate pH 5, 50° C.
Experimental: Corn stover was pretreated at the U.S. Department of Energy National Renewable Energy Laboratory (NREL), […], Colo., USA, using dilute sulfuric acid. The following conditions were used for the pretreatment: 1.4 wt % sulfuric acid at 195° C. for 4.5 minutes. According to limit digestion with excess cellulase enzymes, the water-insoluble solids in the pretreated corn stover (PCS) contained 59.5% cellulose. Prior to use, the PCS was washed with a large volume of deionized water until soluble acid and sugars were removed. The dry weight of the water-washed PCS was 19.16%.
The effect of various salts (FeSO4, FeCl2, NaCl, Na2SO4, MnSO4, MnCl2) was determined in the hydrolysis of PCS by Cellulolytic Enzyme Composition #2. […] Cellulolytic Enzyme Composition #2 was added at 0.25 g per liter. Reactions without the addition of the salt served as controls. The capped tubes were incubated at 50° C. in an INNOVA® 4080 incubator shaker (New Brunswick Scientific Co., Inc., Edison, N.J., USA) at 150 rpm.
as §1
The degree of cellulose conversion to glucose plus cellobiose (% conversion) was calculated using the following equation:
% Conversion=(glucose+cellobiose×1.053)(mg/ml)×100×162/cellulose(mg/ml)×180)=(glucose+cellobiose×1.053)(mg/ml)×100/(cellulose(mg/ml)×1.111)
In this equation the factor 1.111 reflects the weight gain in converting cellulose to glucose, and the factor 1.053 reflects the weight gain in converting cellobiose to glucose. Cellulose in PCS was determined by a limit digest of PCS to release glucose and cellobiose.

[6] = tested on: Cellulolytic Enzyme Composition #1; experiment: mini-plate-scale PASC hydrolysis by Cellulolytic Enzyme Composition #1; assay type: biochemical, Trichoderma reesei; details: 10 mM; 2 g PASC and 0.01 g enzyme per liter
Experimental: as §2
In one series of “mini-scale” hydrolysis reactions performed according to the procedure described in Example 30, the effect of 1 mM to 10 mM FeSO4 was evaluated in the hydrolysis of AVICEL® by Cellulolytic Enzyme Composition #1. In a series of “mini-plate-scale” hydrolysis reactions performed according to the procedure described in Example 32, the effect of 1 mM to 10 mM FeSO4 was evaluated in the hydrolysis of PASC by Cellulolytic Enzyme Composition #1, except 2 g of PASC and 0.05 g Cellulolytic Enzyme Composition #1 per liter of 50 mM sodium acetate pH 5 were used.
The above study was extended to a range of concentration of Fe(II) and cellulose. In a series of “mini-plate-scale” hydrolysis reactions performed according to the procedure described in Example 32, except that 0.1 to 10 mM FeSO4, 0.6 to 4 g of PASC and 0.01 g of Cellulolytic Enzyme Composition #1 per liter of 50 mM sodium acetate pH 5 were used.

[7] = tested on: Cellulolytic Enzyme Composition #1; experiment: Pre-incubation of iron ion with AVICEL or enzyme, then AVICEL hydrolysis; assay type: biochemical, Trichoderma reesei
Experimental: To test whether Fe(II) affects cellulose or cellulase, 10 mM FeCl2 was pre-incubated with either 25 g of AVICEL® or 0.25 g of Cellulolytic Enzyme Composition #1 per liter of 50 mM sodium acetate pH 5 for three days. “Fe-pretreated” AVICEL® was washed and Cellulolytic Enzyme Composition #1 was gel-filtered using BioSpin 6 desalting columns (Bio-Rad, Hercules, Calif., USA) to remove residual Fe ion. Fe-pretreated AVICEL® was hydrolyzed with fresh Cellulolytic Enzyme Composition #1 or Cellulolytic Enzyme Composition #1 subjected to “FeCl2-less” pre-incubation and gel filtration. Fe-pretreated Cellulolytic Enzyme Composition #1 was applied to hydrolyze fresh AVICEL® or AVICEL® subjected to “FeCl2-less” pre-incubation and washing, in comparison with the hydrolysis of fresh AVICEL® ([…]) by fresh Cellulolytic Enzyme Composition #1 ([…]), with or without 10 mM FeCl2. All hydrolyses were performed using the “mini-plate-scale” hydrolysis reaction procedure described in Example 32, except for the change in cellulose or cellulase described above.
To test whether Fe(III) affected cellulose or cellulase, 10 mM FeCl3 was pre-incubated with either 25 g of AVICEL® or 0.25 g of Cellulolytic Enzyme Composition #1 per liter of 50 mM sodium acetate pH 5 for three days. All hydrolyses were performed using the “mini-plate-scale” hydrolysis reactions according to the procedure described in Example 32, except for the change in cellulose or cellulase described above.

[8] = tested on: Cellulolytic Enzyme Composition #1; experiment: Pre-incubation of iron ion with PASC or enzyme, then PASC hydrolysis; assay type: biochemical, Trichoderma reesei
Experimental: The “pre-incubation” study was also performed for the hydrolysis of PASC. The experiments were similar to those described above, except 2 g of PASC, replacing AVICEL®, and 0.01 g of Cellulolytic Enzyme Composition #1 per liter of 50 mM sodium acetate pH 5, and 3 days pre-incubation were used. All hydrolyses were performed using the “mini-plate-scale” hydrolysis reaction according to the procedure described in Example 32, except for the change in cellulose or cellulase described above.

[9] = 10 mM fresh salt, fresh AVICEL, fresh enzyme
[10] = 10 mM, pre-incubated three days with AVICEL
[11] = 10 mM, pre-incubated three days with Cellulolytic Enzyme Composition #1
[12] = fresh salt, PASC, enzyme fresh or buffer pre-incubated
[13] = pre-incubated 3 days with Cellulolytic Enzyme Composition #1

For `c1cnc2c(c1)ccc1ncccc12` [1,7-Phenanthroline], which “cellobiose level in the hydrolysis products versus absence of the compounds” value [1] is on record?
Its value is “about twice”.

And the “Effect of chelator on enzyme in the absence of FeSO4” value [1]?
Its value is “essentially benign”.

With `c1cnc2c(c1)ccc1cccnc12` [1,10-phenanthroline] as the compound, how does the “cellobiose level in the hydrolysis products versus absence of the compounds” value [1] read?
The value was “about twice”.

What about the “Effect of chelator on enzyme in the absence of FeSO4” value [1] of the same compound?
Its value is “significant inhibition”.

What does the source list for `O=C([O-])CC(O)(CC(=O)[O-])C(=O)[O-].[Fe+3]` [Fe(III)-citrate, Fe-citrate]?
Effect on enzymatic cellulolysis: loss in initial rate [2]: No significant change; Effect on enzymatic cellulolysis: loss in extended hydrolysis extent ([2]; after 4 days): no change; Effect on hydrolysis of PCS ([3]; 1 and 10 mM): did not affect; E° [4]: −0.191^2 V

Which “Effect on PCS hydrolysis” value [5] does the source give for `[Cl][Fe][Cl]` [FeCl2, ferrous chloride] here?
Its value is “significant inhibition”.

And the “loss of extent of hydrolysis after 4 days” value [6]?
Its value is ~30%.

What about the “loss of initial hydrolysis rate” value [6] of the same compound?
Its value is ~30%.

And the “loss in extent of hydrolysis” value [7, 9]?
Its value is ~50%.

What about the “loss in initial rate” value [7, 9] of the same compound?
The value was ~50%.

What about the “loss in extent of hydrolysis” value [7, 10] of the same compound?
The value was ~10%.

What about the “loss in initial rate” value [7, 10] of the same compound?
Its value is ~10%.

And the “loss in extent of hydrolysis” value [7, 11]?
Its value is ~20%.

And the “loss in initial rate” value [7, 11]?
Its value is ~20%.

What about the “loss in extent of hydrolysis” value [8, 12] of the same compound?
Its value is “no loss”.

What about the “loss in initial rate” value [8, 12] of the same compound?
The value was “approximately 30%”.

And the “loss in extent of hydrolysis” value [8, 13]?
Its value is “no loss”.

And the “loss in initial rate” value [8, 13]?
The value was ~70%.

And the “loss in extent of hydrolysis” value ([8]; pre-incubated 3 days with PASC)?
The value was “no loss”.

And the “loss in initial rate” value ([8]; pre-incubated 3 days with PASC)?
Its value is ~60%.

With `OO` [H2O2, Hydrogen peroxide] as the compound, how does the “Effect on the inhibition by ferrous ion” value [3] read?
The value was “reduced the inhibitory effect”.

What about the “Effect on hydrolysis in the absence of Fe(II)” value ([3]; 10 mM H2O2 with or without 10 mM desferrioxamine (FIG. 22B)) of the same compound?
The value was “only affected the hydrolysis slightly”.

What does the source list for `CC(=O)N(O)CCCCCNC(=O)CCC(=O)N(O)CCCCCNC(=O)CCC(=O)N(O)CCCCCN` [desferrioxamine]?
Effect on the inhibition by ferrous ion [3]: mitigated almost all; increase in hydrolysis extent ([3]; 10 mM, alone): approximately 2%
